This passage reports EC50 results from BindingDB's records for doi:10.7270/Q2GF0RZ3 (Burnham Center For Chemical Genomics, 2010).

The structures appear in SMILES notation.

The test has as its target G-protein coupled receptor 55 (Homo sapiens, UniProt Q9Y2T6). The test can be described thus: GPR55 agonists via beta-arrestin recruitment, primary screen, imaging, U2OS cells, beta-arrestin-GFP redistribution (AID 1961). Background: Activated receptors often draw arrestin, which recruitment assays turn into a signal.

Sequence of G-protein coupled receptor 55 (Q9Y2T6 whole entry): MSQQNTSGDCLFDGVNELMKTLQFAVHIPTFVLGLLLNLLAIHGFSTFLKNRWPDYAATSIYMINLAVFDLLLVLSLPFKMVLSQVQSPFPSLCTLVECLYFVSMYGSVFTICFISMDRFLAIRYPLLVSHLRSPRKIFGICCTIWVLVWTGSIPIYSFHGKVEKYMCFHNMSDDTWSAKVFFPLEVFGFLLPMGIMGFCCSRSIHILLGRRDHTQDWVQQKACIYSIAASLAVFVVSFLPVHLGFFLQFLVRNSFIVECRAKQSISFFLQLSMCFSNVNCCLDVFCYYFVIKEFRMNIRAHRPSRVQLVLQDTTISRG

The compound `COc1ccc(C2c3sc4nc(C)cc(C)c4c3OC(=N)C2C#N)cc1` (configuration not stated) [2-amino-4-(4-methoxyphenyl)-7,9-dimethyl-4H-pyrano[2',3':4,5]thieno[2,3-b]pyridine-3-carbonitrile] came in with an EC50 of 3.41 µM.
As for `C=c1[nH]n(-c2ccc(C(=O)O)cc2)c(=O)c1=Cc1ccc(-c2ccccc2F)o1` [4-((4E)-4-{[5-(2-fluorophenyl)-2-furyl]methylene}-3-methyl-5-oxo-4,5-dihydro-1H-pyrazol-1-yl)benzoic acid], the figure is 21.3 µM; as for `COC1=CC(=Cc2c(-c3ccccc3)[nH]oc2=O)C=C(Cl)C1=O` [4-[(Z)-(3-chloro-5-methoxy-4-oxo-1-cyclohexa-2,5-dienylidene)methyl]-3-phenyl-2H-isoxazol-5-one], 32 µM; as for `Cc1ccc(NS(=O)(=O)c2cc([N+](=O)[O-])ccc2N=NCc2sc(N3CCOCC3)nc2-c2ccccc2)c(C)c1` [MLS000408840], 0.5 µM.
As for `CC(C)CN1C(=O)/C(=N\NC(=O)c2cccc(S(=O)(=O)N3CCCCC3)c2)c2ccccc21` [MLS000417389], the figure is 4.75 µM.
As for `N#CC1C(=O)NC(c2ccc(-c3cc(Cl)ccc3Cl)o2)N(c2ccccc2)C1=S` (configuration not stated) [MLS000592167], the figure is 32 µM; as for `N#CC1C(=N)OC2=C(CC/C2=C\c2ccccc2)C1c1ccccc1` (configuration not stated) [SMR000176483], 32 µM.

By EC50 is commonly meant the concentration at which the effect is half-maximal. Low values mean greater potency, high ones weaker potency.
